In ChEMBL document CHEMBL1141186, “2-(Benzimidazol-2-yl)quinoxalines: a novel class of selective antagonists at human A(1) and A(3) adenosine receptors designed by 3D database searching” (J Med Chem, 2005):

Legend:
Format in all cases: cell-based
[1] = target: T1, Adenosine receptor A1 (Homo sapiens, UniProt P30542); experiment: Displacement of [3H]DPCPX from human adenosine A1 receptor expressed in CHO cells
T1 sequence (P30542 whole entry): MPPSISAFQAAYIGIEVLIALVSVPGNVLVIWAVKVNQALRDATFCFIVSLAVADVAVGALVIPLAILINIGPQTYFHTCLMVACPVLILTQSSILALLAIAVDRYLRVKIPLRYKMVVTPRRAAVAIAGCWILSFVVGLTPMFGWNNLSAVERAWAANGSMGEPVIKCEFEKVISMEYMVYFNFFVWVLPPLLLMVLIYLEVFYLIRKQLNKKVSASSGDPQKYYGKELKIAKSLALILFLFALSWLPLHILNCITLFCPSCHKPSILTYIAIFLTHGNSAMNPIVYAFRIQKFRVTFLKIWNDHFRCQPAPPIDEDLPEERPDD

[2] = target: Adenosine receptor A2a (Homo sapiens, UniProt P29274); experiment: Displacement of [3H]NECA from human adenosine A2A receptor expressed in CHO cells
Sequence of Adenosine receptor A2a (P29274 whole entry): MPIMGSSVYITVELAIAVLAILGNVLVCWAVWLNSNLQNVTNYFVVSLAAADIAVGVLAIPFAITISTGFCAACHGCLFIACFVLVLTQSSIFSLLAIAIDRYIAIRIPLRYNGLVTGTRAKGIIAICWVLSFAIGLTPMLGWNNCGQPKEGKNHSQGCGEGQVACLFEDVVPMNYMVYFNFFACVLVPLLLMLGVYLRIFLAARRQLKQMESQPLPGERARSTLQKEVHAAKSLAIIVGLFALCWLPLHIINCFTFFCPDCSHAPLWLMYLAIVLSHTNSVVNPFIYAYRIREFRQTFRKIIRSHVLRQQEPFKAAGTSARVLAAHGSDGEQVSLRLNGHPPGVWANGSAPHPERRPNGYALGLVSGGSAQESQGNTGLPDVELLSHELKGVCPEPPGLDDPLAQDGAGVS

[3] = target: T2, Adenosine receptor A3 (Homo sapiens, UniProt P0DMS8); experiment: Displacement of [125I]AB-MECA from human adenosine A3 receptor expressed in CHO cells
T2 sequence (P0DMS8 whole entry): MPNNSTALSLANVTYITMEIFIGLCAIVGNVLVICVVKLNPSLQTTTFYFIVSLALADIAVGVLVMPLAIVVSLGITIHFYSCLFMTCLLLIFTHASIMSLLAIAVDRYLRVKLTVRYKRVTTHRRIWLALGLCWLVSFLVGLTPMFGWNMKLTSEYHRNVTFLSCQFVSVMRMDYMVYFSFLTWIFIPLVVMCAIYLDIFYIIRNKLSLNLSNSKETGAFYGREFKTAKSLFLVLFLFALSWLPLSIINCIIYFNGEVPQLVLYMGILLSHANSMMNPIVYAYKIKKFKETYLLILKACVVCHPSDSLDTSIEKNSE

Row | SMILES | Ki [1] [µM] | Ki [2] [µM] | Ki [3] [µM]
1 | CCc1nc2c([nH]1)c1nc(CC)[nH]c1c1nc(CC)[nH]c21 | 0.046 | 0.72 | 0.104
2 | Cc1cc2nc(-c3cnc4ccccc4n3)[nH]c2cc1C | > 10 | > 10 | 0.37
3 | Cc1cccc2[nH]c(-c3cnc4ccccc4n3)nc12 | 8 | 0.833 | 
4 | O=c1[nH]c2ccccc2nc1-c1cc(Cl)[nH]n1 |  | > 10 | 
5 | Clc1cccc2nc(-c3cnc4ccccc4n3)[nH]c12 | 0.35 | > 10 | 0.14
6 | Clc1cc(Cl)c2[nH]c(-c3cnc4ccccc4n3)nc2c1 | 0.0093 | > 10 | 0.699
7 | c1ccc2nc(-c3nc4cc[nH]cc-4n3)cnc2c1 | > 10 | > 10 | 0.168
8 | Cc1nc2c([nH]1)c1nc(C)[nH]c1c1nc(C)[nH]c21 | > 10 | > 10 | 
9 | c1ccc(-c2nnc(-c3ccccn3)[nH]2)nc1 | > 10 | > 10 | 
10 | COc1ccc2nc(-c3cnc4ccccc4n3)[nH]c2c1 | > 10 | > 10 | > 1
11 | Clc1ccc2[nH]c(-c3cnc4ccccc4n3)nc2c1 | > 10 | > 10 | 0.632
12 | CCc1nc2c([nH]1)c1nc(C)[nH]c1c1nc(CC)[nH]c12 | 0.966 | 0.329 | 0.135

Further lines, results first:

Row | Ki [1] [µM] | Ki [2] [µM] | Ki [3] [µM] | SMILES
13 | > 10 | > 10 | > 1 | c1c[nH]c2nc(-c3cnc4ccccc4n3)nc-2c1
14 | 0.0021 | 3 | 0.278 | CSc1cccc2nc(-c3cnc4ccccc4n3)[nH]c12
15 | > 10 | > 10 |  | CC1CSc2nc3nnnc-3c(O)n21 (configuration not stated)
16 | > 10 | > 10 | 0.437 | Oc1c2nnnc-2nc2n1CCCS2
17 | 0.496 | > 10 | 0.147 | CCc1nc2c3[nH]c(C)nc3c3nc(C)[nH]c3c2[nH]1
18 | > 10 | > 10 | > 1 | Oc1c2nnnc-2nc2n1CCS2
19 | > 10 | > 10 | > 1 | c1ccc2nc(-c3nc4ncncc4[nH]3)cnc2c1
20 | 0.05 | 0.561 |  | c1ccc2nc(-c3nc4ccccc4[nH]3)cnc2c1
21 | > 10 | > 10 | > 1 | Oc1c2nnnc-2nc2sccn12
22 | 0.0005 | 3.44 |  | CCSc1cccc2[nH]c(-c3cnc4ccccc4n3)nc12
23 | > 10 | > 10 | > 1 | Cc1ccc2[nH]c(-c3cnc4ccccc4n3)nc2c1
24 | 0.0036 | > 10 | 0.238 | Cc1cc(Cl)cc2[nH]c(-c3cnc4ccccc4n3)nc12
25 | > 10 | > 10 | 0.879 | O=[N+]([O-])c1cccc2[nH]c(-c3cnc4ccccc4n3)nc12
